From patent US20240252668A1, “ANTIBODY DRUG CONJUGATES AND METHODS FOR MAKING THEREOF” (Novartis AG, priority 2021, published 2024)
Where two headings read alike, the source gives them in different places. Starred links: 1 amine or outer side, 2 acyl side, 3 side chain; linkers in the order of their positions; H or OH if unused. Positions of bridges follow the written chain, without caps; N, C: chain ends. Non-standard residues stand in square brackets, D forms with d. Residues, ends and D or L forms follow the SMILES beside them. ξ: configuration not given here. *: point of attachment. Leu(3R-OH,Nα-propionyl) = CCC(=O)N[C@H](C(=O)*)[C@H](O)C(C)C; X1 = CC(C)[C@@H](O[*:3])[C@H](N[*:1])C(=O)[*:2]; X5 = CSC[C@@H](O[*:3])[C@H](N[*:1])C(=O)[*:2]; X4 = CCC(=O)N[C@H](C(=O)*)[C@H](O)CSC; ξLeu(3ξ-OH) = CC(C)C(O)C(N)C(=O)O; NMeT = CN[CH](C(=O)O)[CH](C)O; dPhLac = O=C(O)[C@H](O)Cc1ccccc1; PhLac = O=C(O)[CH](O)Cc1ccccc1; NMeA = CN[CH](C)C(=O)O; dNMeA = CN[C@H](C)C(=O)O; NMeDha = C=C(NC)C(=O)O

Assays:
[1] = system: 92.1 uveal melanoma cell line (heterozygous GNAQ Q209L); assay: Cell proliferation assay (resazurin cell viability), 92.1 cell line; type: cell-based
Excerpt: (§1) Cell Proliferation Assays with Chromodepsins (compounds (A1) and 2-15): Cell line descriptions: 92.1—uveal melanoma cell line, derived from primary tumor, harboring heterozygous GNAQ Q209L mutation. Purchased from Sigma Aldrich. MP41 (CRL-3297) -uveal melanoma cell line, derived from primary tumor, harboring heterozygous GNA11 Q209L mutation. Purchased from ATCC. A375—skin melanoma cell line, harboring homozygous BRAF V600E mutation. Origin: Cancer Cell Line Encyclopedia (CCLE). SK-MEL-30—skin melanoma cell line, harboring heterozygous NRAS Q61K mutation. Origin: CCLE.
(§2) Cells were cultured in 96-well plates in a total volume of 100 μL at 37° C., 5% CO2 and 95% relative humidity. All cell lines were cultured in RPMI Medium (RPMI 1640 w/o L-glutamine, Bioconcept ref. 1-41F01-I) except A375, DMEM medium (DMEM high glucose (4.5 g/L), Bioconcept, ref. 1-26F01-I), and supplemented with 10% FCS (Bioconcept, ref. 2-01F30-I). Two to three thousand cells were seeded in 96-well plates per well the night before they were treated with compounds (concentration range: from 260 nM to 0.036 nM with ⅓ dilution steps; for 7 the concentration range was increased from 10000 nM to 1.52 nM with ⅓ dilution steps). Cell viability was measured by addition of 10 ul of resazurin per well after 96 hours of treatment. Results were analyzed and plotted using GraphPad Prism 9.0.1.

[2] = system: MP41 uveal melanoma cell line (heterozygous GNA11 Q209L); assay: Cell proliferation assay (resazurin cell viability), MP41 cell line; type: cell-based
Excerpt: as §1, §2

[3] = system: A375 skin melanoma cell line (homozygous BRAF V600E); assay: Cell proliferation assay (resazurin cell viability), A375 cell line; type: cell-based
Excerpt: as §1, §2

[4] = system: SK-MEL-30 skin melanoma cell line (heterozygous NRAS Q61K); assay: Cell proliferation assay (resazurin cell viability), SK-MEL-30 cell line; type: cell-based
Excerpt: as §1, §2

[5] = system: 92.1 and MP41 cell lines (GNAQ/GNA11 mutant uveal melanoma); assay: Cell proliferation assays, potency ranking over both uveal melanoma lines; type: cell-based; details: for loss of potency compared to compound (A1) (growth inhibition): 92.1 and MP41 cell lines
Excerpt: The selective antiproliferative profile of the chromodepsins against GNAQ/GNA11 mutant cell lines is confirmed by the lack of activity against the A375 and SK MEL 30 cell lines that are independent from GNAQ/GNA11 signaling. The potency ranking using the 92.1 and MP41 cell lines is in good agreement with the previously SAR studies. […] These findings are in line with a recent report from Voss et al., highlighting the importance of the “lipophilic anchors” of compound (A1) at the residues varied in compounds 2 and 3, in context of binding kinetics and prolonged residence time on the target proteins. The retained potency of compound 4 indicates a promising exit vector for potential synthetic or biosynthetic modifications of the scaffold. […] The linearized depsipeptides compounds 5-7 lack any antiproliferative activity. In this experimental setup, the cellular permeability of the compounds was a crucial factor contributing to the observed antiproliferative potency. Therefore, all compounds were characterized in a low efflux MCDK assay and determined their exposed polar surface areas (EPSA) in order to assess their passive cellular permeabilities. All macrocyclic chromodepsins that feature the N acyl Hle side chain show similar results concerning their % fraction absorbed (% FA; average ˜60% FA+20%) and EPSA values.
as §1, §2

MDCK-LE monolayers = assay: Cell-based transwell assay with MDCK-low efflux monolayers (passive permeability); type: in vitro ADME; details: for % Fraction absorbed / % Recovery / Papp A − B: MDCK-LE monolayers
Experimental: Cell-based transwell assays with MDCK-low efflux monolayers: Compounds (A1) and 2-15 were tested in MDCK cell sub-clones with low effluxt ransporter activity (MDCK-LE) in order to determine their passive permeability. The incubations were performed at a contract research organization as described previously.

[6] = EPSA determination by supercritical fluid chromatography; type: physicochemical; details: for EPSA: modified EPSA method, SFC
Experimental: […] by supercritical fluid chromatography: Compounds (A1) and 2-15 were tested by supercritical fluid chromatography (SFC) to determine their ESAPSA values. Samples were analyzed using a Chirex 3014 column ([…], 3×100 mm column, 100 Å pore size; Phenomenex. The starting conditions were 5% methanol containing 20 mM ammonium formate and 95% scCO2. The gradient was increased linearly to 60% methanol containing 20 mM ammonium formate in 4.5 min.

[7] = 92.1 (GNAQ Q209L), 96 hours of treatment, read-out: GI50 by cell line, 92.1
[8] = 92.1 cell line, average of Rep. 1 and 2, read-out: GI50 92.1 Average
[9] = 92.1 cell line, replicate 1, read-out: GI50 92.1 Rep. 1
[10] = 92.1 cell line, replicate 2, read-out: GI50 92.1 Rep. 2
[11] = MP41 (GNA11 Q209L), 96 hours of treatment, read-out: GI50 by cell line, MP41
[12] = MP41 cell line, average of Rep. 1 and 2, read-out: GI50 MP41 Average
[13] = MP41 cell line, replicate 1, read-out: GI50 MP41 Rep. 1
[14] = MP41 cell line, replicate 2, read-out: GI50 MP41 Rep. 2
[15] = A375 (GNAQ/11 wild type), 96 hours of treatment, read-out: GI50 by cell line, A375
[16] = A375 cell line, average of Rep. 1 and 2, read-out: GI50 A375 Average
[17] = A375 cell line, replicate 1, read-out: GI50 A375 Rep. 1
[18] = A375 cell line, replicate 2, read-out: GI50 A375 Rep. 2
[19] = SK-MEL-30 (GNAQ/11 wild type), 96 hours of treatment, read-out: GI50 by cell line, SK-MEL-30
[20] = SK-MEL-30 cell line, average of Rep. 1 and 2, read-out: GI50 SK-MEL-30 Average
[21] = SK-MEL-30 cell line, replicate 1, read-out: GI50 SK-MEL-30 Rep. 1
[22] = SK-MEL-30 cell line, replicate 2, read-out: GI50 SK-MEL-30 Rep. 2
[23] = versus macrocyclic chromodepsins with N-acyl-Hle side chain

Row | SMILES | GI50 [1, 7] [nM] | GI50 [1, 8] [nM] | GI50 [1, 9] [nM] | GI50 [1, 10] [nM] | GI50 [2, 11] [nM] | GI50 [2, 12] [nM] | GI50 [2, 13] [nM] | GI50 [2, 14] [nM] | GI50 [3, 15] [nM] | GI50 [3, 16] [nM] | GI50 [3, 17] [nM] | GI50 [3, 18] [nM] | GI50 [4, 19] [nM] | GI50 [4, 20] [nM] | GI50 [4, 21] [nM] | GI50 [4, 22] [nM] | loss of potency compared to compound (A1) (growth inhibition) [5] | % Fraction absorbed (MDCK-LE monolayers) [%] | % Recovery (MDCK-LE monolayers) [%] | Papp A − B (MDCK-LE monolayers) [×10⁻⁶ cm/s] | other results
1 | CCC(=O)N[C@H](C(=O)O[C@H](C(C)C)[C@@H]1NC(=O)[C@H](C)N(C)C(=O)[C@H](C)NC(=O)[C@H](C)N(C)C(=O)[C@@H](Cc2ccccc2)OC(=O)[C@@H](NC(C)=O)[C@@H](C(C)C)OC(=O)[C@H]([C@@H](C)OC)N(C)C1=O)[C@H](O)C(C)C [Compound 10] (Ac-[X1][dPhLac][NMeA]A[NMeA][X1](Leu(3R-OH,Nα-propionyl))[NMeT](Me); ester 1-C) | 607 | 607 | 760 | 453 | 396 | 396 | 419 | 372 | > 10000 | > 10000 | > 10000 | > 10000 | > 10000 | > 10000 | > 10000 | > 10000 | 25-30 fold | 37.6 | 77 | 2.03 | 
2 | C=C1C(=O)NC(C)C(=O)N(C)C(C)C(=O)NC(C(O)C(C)C)C(=O)N(C)C(C(C)OC)C(=O)OC(C)C(NC(C)=O)C(=O)OC(Cc2ccccc2)C(=O)N1C (centres unmarked) [Compound 15] (Ac-T[PhLac][NMeDha]A[NMeA][ξLeu(3ξ-OH)][NMeT](Me); ester 1-C; configuration not given here) | > 10000 | > 10000 | > 10000 | > 10000 | > 10000 | > 10000 | > 10000 | > 10000 | > 10000 | > 10000 | > 10000 | > 10000 | > 10000 | > 10000 | > 10000 | > 10000 |  | 15 | 90 | 0.79 | antiproliferative activity (in words) [5]: some antiproliferative activity observed at the highest doses tested; GI50 ([5]; cell line not specified): > 10000 nM; reduction in % FA (MDCK-LE monolayers; [23]): ~5 fold; EPSA [6]: 109 A^2; change in EPSA (in words) [6, 23]: slight changes
3 | C=C1C(=O)N[C@@H](C)C(=O)N(C)[C@@H](C)C(=O)N[C@@H]([C@H](OC(=O)[C@@H](NC(=O)CC)[C@H](O)C(C)C)C(C)C)C(=O)N(C)[C@@H]([C@@H](C)OC)C(=O)O[C@H](C)[C@H](NC(C)=O)C(=O)O[C@H](Cc2ccccc2)C(=O)N1C [Compound 14] (Ac-T[dPhLac][NMeDha]A[NMeA][X1](Leu(3R-OH,Nα-propionyl))[NMeT](Me); ester 1-C) | 5.2 | 5.2 | 2.95 | 7.53 | 2.2 | 2.2 | 1.5 | 2.81 | > 260 | > 260 | > 260 | > 260 | > 260 | > 260 | > 260 | > 260 | ~10 fold | 53.3 | 85 | 3.32 | EPSA [6]: 95 A^2
4 | C=C1C(=O)N[C@@H](C)C(=O)N(C)[C@@H](C)C(=O)N[C@@H]([C@H](OC(=O)[C@@H](NC(=O)CC)[C@H](O)CSC)C(C)C)C(=O)N(C)[C@@H]([C@@H](C)OC)C(=O)O[C@H](C(C)C)[C@H](NC(C)=O)C(=O)O[C@H](Cc2ccccc2)C(=O)N1C [Compound 4] (Ac-[X1][dPhLac][NMeDha]A[NMeA][X1](X4)[NMeT](Me); ester 1-C) | 1.2 | 1.2 | 0.91 | 1.5 | 0.5 | 0.5 | 0.45 | 0.53 | > 260 | > 260 | > 260 | > 260 | > 260 | > 260 | > 260 | > 260 | two-fold | 32.5 | 75 | 1.71 | EPSA [6]: 104 A^2
5 | C=C1C(=O)N[C@@H](C)C(=O)N(C)[C@@H](C)C(=O)N[C@@H]([C@@H](CSC)OC(=O)[C@@H](NC(=O)CC)[C@H](O)C(C)C)C(=O)N(C)[C@@H]([C@@H](C)OC)C(=O)O[C@H](C(C)C)[C@H](NC(C)=O)C(=O)O[C@H](Cc2ccccc2)C(=O)N1C [Compound 3] (Ac-[X1][dPhLac][NMeDha]A[NMeA][X5](Leu(3R-OH,Nα-propionyl))[NMeT](Me); ester 1-C) | 10.4 | 10.4 | 9.05 | 11.7 | 4 | 4 | 3.12 | 4.89 | > 260 | > 260 | > 260 | > 260 | > 260 | > 260 | > 260 | > 260 | ~15 fold | 86.1 | 90 | 12.2 | EPSA [6]: 98 A^2
6 | CCC(=O)N[C@H](C(=O)O[C@H](C(C)C)[C@@H]1NC(=O)[C@H](C)N(C)C(=O)[C@H](C)NC(=O)[C@@H](C)N(C)C(=O)[C@@H](Cc2ccccc2)OC(=O)[C@@H](NC(C)=O)[C@@H](C(C)C)OC(=O)[C@H]([C@@H](C)OC)N(C)C1=O)[C@H](O)C(C)C [Compound 11] (Ac-[X1][dPhLac][dNMeA]A[NMeA][X1](Leu(3R-OH,Nα-propionyl))[NMeT](Me); ester 1-C) | 1.8 | 1.8 | 1.4 | 2.24 | 0.7 | 0.7 | 0.54 | 0.78 | > 260 | > 260 | > 260 | > 260 | > 260 | > 260 | > 260 | > 260 | two to three | 79.5 | 76 | 8.5 | EPSA [6]: 95 A^2
